From patent publication US20070082880A1 (priority 2005, published 2007) come the findings set out here.

For orientation: IC50 means the concentration at which inhibition is half-maximal. Low values mean higher potency, high ones lower potency.

T1 sequence (Q04759 whole entry): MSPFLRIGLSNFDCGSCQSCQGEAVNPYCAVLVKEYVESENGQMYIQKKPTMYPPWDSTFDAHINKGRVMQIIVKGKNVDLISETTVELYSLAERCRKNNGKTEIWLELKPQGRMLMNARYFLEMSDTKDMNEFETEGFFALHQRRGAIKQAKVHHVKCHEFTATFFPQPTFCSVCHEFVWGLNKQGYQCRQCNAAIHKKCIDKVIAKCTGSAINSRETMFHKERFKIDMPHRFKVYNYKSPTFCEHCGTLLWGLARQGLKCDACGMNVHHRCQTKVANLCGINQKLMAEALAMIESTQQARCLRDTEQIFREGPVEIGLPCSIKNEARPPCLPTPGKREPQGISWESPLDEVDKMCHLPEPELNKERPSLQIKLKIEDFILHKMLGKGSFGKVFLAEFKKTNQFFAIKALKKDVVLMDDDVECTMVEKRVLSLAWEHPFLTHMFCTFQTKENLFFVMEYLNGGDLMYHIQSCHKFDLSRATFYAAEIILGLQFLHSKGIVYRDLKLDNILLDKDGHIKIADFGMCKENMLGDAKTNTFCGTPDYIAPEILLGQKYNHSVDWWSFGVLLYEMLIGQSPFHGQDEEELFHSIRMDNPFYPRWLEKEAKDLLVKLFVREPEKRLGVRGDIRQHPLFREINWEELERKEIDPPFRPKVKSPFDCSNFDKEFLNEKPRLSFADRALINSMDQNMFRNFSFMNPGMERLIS

The test addresses T1, human PKCθ full length enzyme (Homo sapiens, UniProt Q04759).
T1 construct: human PKCθ full length enzyme (Panvera Catalog No. P2996); purchased Panvera P2996
Kind of test: PKCθ IMAP Assay. The format is biochemical. The following applies: average value when one or more samples were tested; ATP 6 uM, PKCθ 1 nM. The gist of the method:
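IMAP fluorescence polarization after 20 min with binding beads measured phosphorylation of 100 nM 5FAM-peptide. Reactions held 1 nM full-length human PKCθ, 6 uM ATP, 5% DMSO and DTT-containing buffer, 25 min at room temperature. Compounds tested as 2:1 serial dilutions; controls lacked ATP or enzyme.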
In turn, `Cc1c(Nc2c(C#N)cnc3sc(-c4ccccc4N)cc23)ccc2[nH]ccc12` [Compound 436, 2-(2-aminophenyl)-4-[(4-methyl-1H-indol-5-yl)amino]thieno[2,3-b]pyridine-5-carbonitrile] came in with an IC50 of 215 nM. With `Cc1c(Nc2c(C#N)cnc3sc(-c4cccc(O)c4)cc23)ccc2[nH]ccc12` [Compound 437, 2-(3-hydroxyphenyl)-4-[(4-methyl-1H-indol-5-yl)amino]thieno[2,3-b]pyridine-5-carbonitrile] the figure was 11 nM; with `Cc1c(Nc2c(C#N)cnc3sc(-c4cccnc4)cc23)ccc2[nH]ccc12` [Compound 438, 4-[(4-methyl-1H-indol-5-yl)amino]-2-pyridin-3-ylthieno[2,3-b]pyridine-5-carbonitrile], 14 nM. In the case of `Cc1c(Nc2c(C#N)cnc3sc(-c4ccncc4)cc23)ccc2[nH]ccc12` [Compound 439, 4-[(4-methyl-1H-indol-5-yl)amino]-2-pyridin-4-ylthieno[2,3-b]pyridine-5-carbonitrile], the IC50 worked out at 13 nM. `Cc1c(Nc2c(C#N)cnc3sc(-c4ccccn4)cc23)ccc2[nH]ccc12` [Compound 440, 4-[(4-methyl-1H-indol-5-yl)amino]-2-pyridin-2-ylthieno[2,3-b]pyridine-5-carbonitrile] returned an IC50 of 16 nM.

In turn, `Cc1c(Nc2c(C#N)cnc3sc(-c4ccc(O)cc4)cc23)ccc2[nH]ccc12` [Compound 441, 2-(4-hydroxyphenyl)-4-[(4-methyl-1H-indol-5-yl)amino]thieno[2,3-b]pyridine-5-carbonitrile] gave an IC50 of 29 nM. Consider `Cc1c(Nc2c(C#N)cnc3sc(-c4ccccc4O)cc23)ccc2[nH]ccc12` [Compound 442, 2-(2-hydroxyphenyl)-4-[(4-methyl-1H-indol-5-yl)amino]thieno[2,3-b]pyridine-5-carbonitrile], for which the IC50 amounted to 273 nM.

Compound `Cc1c(Nc2c(C#N)cnc3sc(C#CCCN4CCN(C)CC4)cc23)ccc2[nH]ccc12` [Compound 450, 4-[(4-methyl-1H-indol-5-yl)amino]-2-[4-(4-methylpiperazin-1-yl)but-1-yn-1-yl]thieno[2,3-b]pyridine-5-carbonitrile] had an IC50 of 126 nM. Consider `Cc1cc(CN(C)C)cc(-c2cc3c(Nc4ccc5[nH]ccc5c4C)c(C#N)cnc3s2)c1` [Compound 454, 2-{3-[(dimethylamino)methyl]-5-methylphenyl}-4-[(4-methyl-1H-indol-5-yl)amino]thieno[2,3-b]pyridine-5-carbonitrile], for which inhibition was half-maximal at 8 nM (IC50). Compared with the last compound, the IC50 is about 16-fold lower. The compound `CCCOc1c(CN(C)C)cc(C)cc1-c1cc2c(Nc3ccc4[nH]ccc4c3C)c(C#N)cnc2s1` [Compound 455, 2-{3-[(dimethylamino)methyl]-5-methyl-2-propoxyphenyl}-4-[(4-methyl-1H-indol-5-yl)amino]thieno[2,3-b]pyridine-5-carbonitrile] registered an IC50 of 29 nM. Consider `COc1ccc(-c2cc3c(Nc4ccc5[nH]ccc5c4)c(C#N)cnc3s2)cc1CN(C)C` [Compound 456, 2-{3-[(dimethylamino)methyl]-4-methoxyphenyl}-4-(1H-indol-5-ylamino)thieno[2,3-b]pyridine-5-carbonitrile], for which the IC50 came out at 318 nM. This IC50 is about 11-fold higher than that of the compound before.

In turn, `COc1ccc(CN(C)C)cc1-c1cc2c(Nc3ccc4[nH]ccc4c3C)c(C#N)cnc2s1` [Compound 457, 2-{5-[(dimethylamino)methyl]-2-methoxyphenyl}-4-[(4-methyl-1H-indol-5-yl)amino]thieno[2,3-b]pyridine-5-carbonitrile] came in with an IC50 of 5 nM. This IC50 lies about 64-fold lower than the previous one.

`Cc1c(Nc2c(C#N)cnc3sc(-c4cccc(CN(C)C)c4)c(C)c23)ccc2[nH]ccc12` [Compound 458, 2-{3-[(dimethylamino)methyl]phenyl}-3-methyl-4-[(4-methyl-1H-indol-5-yl)amino]thieno[2,3-b]pyridine-5-carbonitrile] gave an IC50 of 99 nM. This IC50 lies about 20-fold higher than the previous one. For the compound `COc1ccc(CN(C)C)cc1-c1sc2ncc(C#N)c(Nc3ccc4[nH]ccc4c3C)c2c1C` [Compound 459, 2-{5-[(dimethylamino)methyl]-2-methoxyphenyl}-3-methyl-4-[(4-methyl-1H-indol-5-yl)amino]thieno[2,3-b]pyridine-5-carbonitrile], the IC50 was found to be 243 nM. `Cc1c(Nc2c(C#N)cnc3sc(-c4ccc(CN(C)C)cc4)c(C)c23)ccc2[nH]ccc12` [Compound 460, 2-{4-[(dimethylamino)methyl]phenyl}-3-methyl-4-[(4-methyl-1H-indol-5-yl)amino]thieno[2,3-b]pyridine-5-carbonitrile]: half-maximal inhibition (IC50) was put at 61 nM. In turn, `COc1ccc(CN2CCN(C)CC2)cc1-c1cc2c(Nc3ccc4[nH]ccc4c3C)c(C#N)cnc2s1` [Compound 461, 2-{2-methoxy-5-[(4-methylpiperazin-1-yl)methyl]phenyl}-4-[(4-methyl-1H-indol-5-yl)amino]thieno[2,3-b]pyridine-5-carbonitrile] showed an IC50 of 6 nM. Compared with the last compound, the IC50 is about 10-fold lower. Turning to `Cc1c(Nc2c(C#N)cnc3sc(-c4cncc(CN(C)C)c4)cc23)ccc2[nH]ccc12` [Compound 462, 2-{5-[(dimethylamino)methyl]pyridin-3-yl}-4-[(4-methyl-1H-indol-5-yl)amino]thieno[2,3-b]pyridine-5-carbonitrile], the IC50 came to 83 nM. The compound `Cc1c(Nc2c(C#N)cnc3sc(-c4cc(CN(C)C)ccc4F)cc23)ccc2[nH]ccc12` [Compound 463, 2-{5-[(dimethylamino)methyl]-2-fluorophenyl}-4-[(4-methyl-1H-indol-5-yl)amino]thieno[2,3-b]pyridine-5-carbonitrile] showed an IC50 of 14 nM.

The compound `CN(C)Cc1cscc1-c1cc2c(Nc3ccc4[nH]ccc4c3)c(C#N)cnc2s1` [Compound 464, 2-{4-[(dimethylamino)methyl]-3-thienyl}-4-(1H-indol-5-ylamino)thieno[2,3-b]pyridine-5-carbonitrile] gave an IC50 of 77 nM.

Consider `CN(C)Cc1ccc2sc(-c3cc4c(Nc5ccc6[nH]ccc6c5)c(C#N)cnc4s3)cc2c1` [Compound 465, 2-{5-[(dimethylamino)methyl]-1-benzothien-2-yl}-4-(1H-indol-5-ylamino)thieno[2,3-b]pyridine-5-carbonitrile], for which the IC50 is 49 nM.

On to `Cc1c(Nc2c(C#N)cnc3sc(-c4cc(CN(C)C)cc(OC(C)C)c4)cc23)ccc2[nH]ccc12` [Compound 466, 2-{3-[(dimethylamino)methyl]-5-isopropoxyphenyl}-4-[(4-methyl-1H-indol-5-yl)amino]thieno[2,3-b]pyridine-5-carbonitrile], for which the IC50 came to 64 nM. `Cc1c(Nc2c(C#N)cnc3sc(-c4cc5cc(CN(C)C)ccc5s4)cc23)ccc2[nH]ccc12` [Compound 467, 2-{5-[(dimethylamino)methyl]-1-benzothien-2-yl}-4-[(4-methyl-1H-indol-5-yl)amino]thieno[2,3-b]pyridine-5-carbonitrile] had an IC50 of 171 nM. Turning to `Cc1c(Nc2c(C#N)cnc3sc(-c4csc(CN(C)C)c4)cc23)ccc2[nH]ccc12` [Compound 468, 2-{5-[(dimethylamino)methyl]-3-thienyl}-4-[(4-methyl-1H-indol-5-yl)amino]thieno[2,3-b]pyridine-5-carbonitrile], the IC50 amounted to 16 nM. Against the preceding compound, the IC50 is about 11-fold lower.

In turn, `Cc1c(Nc2c(C#N)cnc3sc(-c4ccccc4CNCCCO)cc23)ccc2[nH]ccc12` [Compound 469, 2-(2-{[(3-hydroxypropyl)amino]methyl}phenyl)-4-[(4-methyl-1H-indol-5-yl)amino]thieno[2,3-b]pyridine-5-carbonitrile] gave an IC50 of 151 nM. As for `Cc1c(Nc2c(C#N)cnc3sc(-c4ccccc4CNCCO)cc23)ccc2[nH]ccc12` [Compound 470, 2-(2-{[(2-hydroxyethyl)amino]methyl}phenyl)-4-[(4-methyl-1H-indol-5-yl)amino]thieno[2,3-b]pyridine-5-carbonitrile], the IC50 is 57 nM.

`N#Cc1cnc2sc(C3=CCNCC3)cc2c1Nc1cccc2[nH]ccc12` [Compound 473, 4-(1H-indol-4-ylamino)-2-(1,2,3,6-tetrahydropyridin-4-yl)thieno[2,3-b]pyridine-5-carbonitrile] had an IC50 of 143 nM. As to `Cc1c(Nc2c(C#N)cnc3sc(C4=CCNCC4)cc23)ccc2[nH]ccc12` [Compound 474, 4-[(4-methyl-1H-indol-5-yl)amino]-2-(1,2,3,6-tetrahydropyridin-4-yl)thieno[2,3-b]pyridine-5-carbonitrile], the midpoint of inhibition, the IC50, lay at 10 nM. `Cc1c(Nc2c(C#N)cnc3sc(C4=CCN(Cc5ccccc5)CC4)cc23)ccc2[nH]ccc12` [Compound 476, 2-(1-benzyl-1,2,3,6-tetrahydropyridin-4-yl)-4-[(4-methyl-1H-indol-5-yl)amino]thieno[2,3-b]pyridine-5-carbonitrile] showed an IC50 of 153 nM. This IC50 is about 15-fold higher than that of the compound before. `Cc1c(Nc2c(C#N)cnc3sc(C4CCNCC4)cc23)ccc2[nH]ccc12` [Compound 478, 4-[(4-methyl-1H-indol-5-yl)amino]-2-piperidin-4-ylthieno[2,3-b]pyridine-5-carbonitrile] had an IC50 of 70 nM. `Cc1c(Nc2c(C#N)cnc3sc(C4CCN(Cc5ccccc5)C4)cc23)ccc2[nH]ccc12` (centres unmarked) [Compound 479, 2-(1-benzylpyrrolidin-3-yl)-4-[(4-methyl-1H-indol-5-yl)amino]thieno[2,3-b]pyridine-5-carbonitrile] showed an IC50 of 1970 nM. Against the preceding compound, the IC50 is about 28-fold higher. In turn, `Cc1c(Nc2c(C#N)cnc3sc(-c4cccc(OC[C@@H](C)O)c4)cc23)ccc2[nH]ccc12` [Compound 482, 2-(3-{[(2R)-2-hydroxypropyl]-oxy}phenyl)-4-[(4-methyl-1H-indol-5-yl)amino]thieno[2,3-b]pyridine-5-carbonitrile] yielded an IC50 of 93 nM. `Cc1c(Nc2c(C#N)cnc3sc(-c4cccc(OC[C@H](C)O)c4)cc23)ccc2[nH]ccc12` [Compound 483, 2-(3-{[(2S)-2-hydroxypropyl]-oxy}phenyl)-4-[(4-methyl-1H-indol-5-yl)amino]thieno[2,3-b]pyridine-5-carbonitrile] had an IC50 of 59 nM. Against the preceding compound, the IC50 is about 1.6-fold lower.
